Data set [1] can be described thus: Drying experiments of solvated Compound 1 materials (vacuum oven, XRPD). Type of data set: physicochemical. The note with it: vac., 1 d. The method, then:
Drying experiments: Damp and solvated Compound 1 materials were placed in vacuum ovens set to ambient temperature or 80° C. for 1 day. Dried solids were analyzed by XRPD.

Data set [2] is described as follows: Disproportionation of Compound 2 (HCl salt) stirred in water. Type of data set: physicochemical. The note with it: Form A obtained by disproportionation of Compound 2 in water (Example 11). The method, then: An exemplary procedure for preparing Compound 1 Form A is as follows: Compound 1 Lot II (459.1 mg) was slurried in THF (4 mL). Concentrated HCl (154 μL, 2 equiv.) was added to the slurry. The off-white slurry rapidly changed to a yellow slurry. The slurry was stirred at ambient temperature for 1 day. Solids were collected by vacuum filtration and briefly dried under vacuum. The yellow material, assumed to be an HCl salt, was collected by vacuum filtration. The material (543.2 mg) was then suspended in H2O (5 mL) and stirred at ambient temperature for 2 days. Pale yellow solids were collected by vacuum filtration but appeared to still contain some HCl salt by XRPD. Solids were re-slurried in H2O (1 mL) at ambient temperature for additional 3 days. The off-white solids were collected by vacuum filtration and dried on filter until solids were no longer visibly damp.

The nature of data set [3]: Variable relative humidity XRPD (VRH-XRPD). Type of data set: physicochemical. The method, then:
XRPD patterns were collected with a PANalytical X'Pert PRO MPD diffractometer using an incident beam of Cu Kα radiation produced using a long, fine-focus source and a nickel filter. The diffractometer was configured using the symmetric Bragg-Brentano geometry. Data were collected and analyzed using Data Collector software v. 5.5. Prior to the analysis, a silicon specimen (NIST SRM 640f) was analyzed to verify the observed position of the Si 111 peak is consistent with the NIST-certified position. A specimen of the sample was packed in a nickel-coated copper well. Antiscatter slits (SS) were used to minimize the background generated by air. Soller slits for the incident and diffracted beams were used to minimize broadening from axial divergence. Diffraction patterns were collected using a scanning position-sensitive detector (X'Celerator) located 240 mm from the sample and Data Collector software v. 5.5.
An Anton Paar temperature-humidity chamber (THC) was used while collecting in-situ XRPD patterns as a function of humidity. The temperature of the specimen was changed with a Peltier thermoelectric device located directly under the specimen holder and monitored with a platinum-100 resistance sensor located in the specimen holder. The thermoelectric device was powered and controlled by an Anton Paar TCU 50 interfaced with Data Collector. The humidity was generated with an RH-200 manufactured by VTI Inc. and carried by a flow of nitrogen gas. The humidity was monitored by a HygroClip sensor manufactured by Rotronic located next to the specimen inside the THC.
VRH-XRPD analysis was conducted to help determine water activity boundary for the solid-state conversion between hydrated Form A and anhydrous Form B. This method was utilized due the observed high tendency of Compound 1 to form solvates, which precluded the use of solvent-mediated approach.
Overall, two VRH-XRPD experiments were conducted to qualitatively evaluate RH conditions leading to predominance of Form A over Form B and vice versa. The kinetic component was not assessed.
The first VRH-XRPD experiment was conducted with a goal of observing dehydration of hydrated Form A. An initial XRPD scan was, therefore, acquired on Form A equilibrated in-situ at ambient RH for 45 minutes, which at the time of the analysis was ˜30%. The XRPD pattern from this scan was consistent with Form A (FIG. 39, top).
XRPD patterns were collected throughout the course of the experiment, each with a 10 minute scan.
XRPD patterns were collected throughout the course of the experiment, each with a 10 minute scan. The XRPD patterns remained Form B until the RH reached approximately 60% RH, where Form A became the primary phase with some Form B remaining (FIG. 41, top two spectra). Further decrease of Form B was observed through the remainder of the 60% RH hold at which point the experiment ended (FIG. 41, bottom two spectra). Complete conversion to Form A from Form B was not observed under these conditions.

Data set [4] can be described thus: Relative humidity jar experiments (XRPD). Format: physicochemical. The method, then: Relative humidify jar experiments: Solid Compound 1 was placed in relative humidity jars containing saturated solutions of various salts to maintain a desired relative humidity level at 25° C. One sample of Compound 1 was placed in a jar containing P205 in an effort to maintain 0% RH.

The target of data set [5] is T1, JAK2 (JH1domain-catalytic, Y1007F,Y1008F) kinase (Homo sapiens, UniProt O60674, Y1007F/Y1008F).
T1 construct: JAK2 (JH1domain-catalytic, Y1007F,Y1008F) kinase was expressed as N-terminal fusion; made in house; host or cells: transiently transfected HEK293 cells
T1 sequence (O60674 849-1124 Y1007F/Y1008F limits assumed): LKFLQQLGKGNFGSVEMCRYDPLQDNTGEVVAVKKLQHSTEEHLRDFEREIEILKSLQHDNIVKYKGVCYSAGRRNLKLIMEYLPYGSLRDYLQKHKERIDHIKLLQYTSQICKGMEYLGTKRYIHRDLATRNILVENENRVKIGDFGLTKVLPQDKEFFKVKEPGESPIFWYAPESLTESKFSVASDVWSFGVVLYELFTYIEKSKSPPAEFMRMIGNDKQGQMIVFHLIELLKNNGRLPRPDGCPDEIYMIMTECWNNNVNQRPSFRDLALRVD
Put plainly: JAK2 Binding Assay. The note with it: Compound 1 as prepared by Example 1. The method, then:
JAK2 (JH1domain-catalytic, Y1007F,Y1008F) kinase was expressed as N-terminal fusion to the DNA binding domain of NFkB in transiently transfected HEK293 cells and subsequently tagged with DNA for qPCR detection. Streptavidin-coated magnetic beads were treated with biotinylated small molecule ligands for 30 minutes at room temperature to generate affinity resins for kinase assays. The liganded beads were blocked with excess biotin and washed with blocking buffer (SeaBlock (Pierce), 1% BSA, 0.05% Tween 20, 1 mmol/L DTT) to remove unbound ligand and to reduce nonspecific phage binding. Binding reactions were assembled by combining kinases, liganded affinity beads, and test compounds in 1× binding buffer (1×PBS, 0.05% Tween 20, 0.1% BSA, 1 mmol/L DTT). Test compound was prepared as 111× stocks in 100% DMSO and directly diluted into the assay wells. All reactions were performed in polypropylene 384-well plates in a final volume of 0.02 mL. The assay plates were incubated at room temperature with shaking for 1 hour and the affinity beads were washed with wash buffer (1×PBS, 0.05% Tween 20). The beads were then re-suspended in elution buffer (1×PBS, 0.05% Tween 20, 0.5 μmol/L non-biotinylated affinity ligand) and incubated at room temperature with shaking for 30 minutes. The kinase concentration in the eluate was measured by qPCR.

`CC(=O)Nc1cc(Oc2cnc3nc(Nc4cc(C(F)(F)F)cn(C)c4=O)n(C)c3c2C#N)ccn1` [Compound 1 Form D, N-(4-((7-cyano-1-methyl-2-((1-methyl-2-oxo-5-(trifluoromethyl)-1,2-dihydropyridin-3-yl)amino)-1H-imidazo[4,5-b]pyridin-6-yl)oxy)pyridin-2-yl)acetamide]: the “XRPD Result after drying” value is “Form D + peaks (some disorder)” in data set [1] (80° C.) and “Form D^a” in data set [1] (RT, listed as Form D).

For the molecule `CC(=O)Nc1cc(Oc2cnc3nc(Nc4cc(C(F)(F)F)cn(C)c4=O)n(C)c3c2C#N)ccn1` [Compound 1 Form A, N-(4-((7-cyano-1-methyl-2-((1-methyl-2-oxo-5-(trifluoromethyl)-1,2-dihydropyridin-3-yl)amino)-1H-imidazo[4,5-b]pyridin-6-yl)oxy)pyridin-2-yl)acetamide], the “Stability relative to Compound 2” value in data set [2] was “superior stability”. The “RH at which a small amount of Form B became visible” value in data set [3] (Experiment 1, RH incrementally decreased from ~85%) is reported as “approximately 21 % RH”. In addition, in data set [3] (Experiment 1, decreasing RH), the “RH at which Form A was no longer visible” value is listed as approximately 5 % RH and the “RH at which Form B became the predominant phase” value is given as 11 % RH. Besides, in data set [3] (VRH-XRPD and DVS data combined), the “RH at which dehydration is expected to begin” value is 20 % RH. Also, the “Form change on hold under nitrogen stream” value in data set [3] (overnight (17 h) hold under nitrogen stream (~0% RH)) is “converted to Form B”.

For the molecule `CC(=O)Nc1cc(Oc2cnc3nc(Nc4cc(C(F)(F)F)cn(C)c4=O)n(C)c3c2C#N)ccn1` [Compound 1 Form G, N-(4-((7-cyano-1-methyl-2-((1-methyl-2-oxo-5-(trifluoromethyl)-1,2-dihydropyridin-3-yl)amino)-1H-imidazo[4,5-b]pyridin-6-yl)oxy)pyridin-2-yl)acetamide], in data set [1] (RT, listed as Form G), the “XRPD Result after drying” value was “Form B + peaks (some disorder)”.

Consider `CC(=O)Nc1cc(Oc2cnc3nc(Nc4cc(C(F)(F)F)cn(C)c4=O)n(C)c3c2C#N)ccn1` [Compound 1 Form E, N-(4-((7-cyano-1-methyl-2-((1-methyl-2-oxo-5-(trifluoromethyl)-1,2-dihydropyridin-3-yl)amino)-1H-imidazo[4,5-b]pyridin-6-yl)oxy)pyridin-2-yl)acetamide], for which the “XRPD Result after drying” value in data set [1] (RT, listed as Form E) was “Form H (some disorder)”.

In the case of `CC(=O)Nc1cc(Oc2cnc3nc(Nc4cc(C(F)(F)F)cn(C)c4=O)n(C)c3c2C#N)ccn1` [Compound 1 Form F, N-(4-((7-cyano-1-methyl-2-((1-methyl-2-oxo-5-(trifluoromethyl)-1,2-dihydropyridin-3-yl)amino)-1H-imidazo[4,5-b]pyridin-6-yl)oxy)pyridin-2-yl)acetamide], the “XRPD Result after drying” value in data set [1] (RT, listed as Form F) is on record as “Form F”.

As for `CC(=O)Nc1cc(Oc2cnc3nc(Nc4cc(C(F)(F)F)cn(C)c4=O)n(C)c3c2C#N)ccn1` [Compound 1, N-(4-((7-cyano-1-methyl-2-((1-methyl-2-oxo-5-(trifluoromethyl)-1,2-dihydropyridin-3-yl)amino)-1H-imidazo[4,5-b]pyridin-6-yl)oxy)pyridin-2-yl)acetamide], the “XRPD Results after RH stress” value in data set [4] (23% RH, RT, 6 d) is “B + minor A”; in data set [4] (43% RH, RT, 6 d), “A + B”; in data set [4] (54% RH, RT, 6 d) it was “A + B”; in data set [4] (P2O5 jar, 0% RH RT, 12 d), “B + peaks”. Further, in data set [5], the Kd is less than 0.01 µM.

For the origin of these results see patent publication US12162881B2, “Forms and compositions of inhibitors of JAK2” (Ajax Therapeutics, Inc., priority 2021, dated 2024).
